Values quoted from earlier work as cited in patent publication US11607623B2, “Dynamic interface system and its application in supercritical fluid extraction and chromatography” (CORNERSTONE TECHNOLOGIES LLC, priority 2019, dated 2023).

SMILES | molar solubility in SC-CO2, course across temperature (220-240 bar, across the 42-72° C. temperature ranges) | solubility in SC-CO2 at 54° C. relative to 41° C. or 61° C. (lower pressures 160-180 bar) | solubility in SC-CO2, change with temperature (pressures of 220-240 bar, temperature raised from 42° C. to 72° C.)
CCCCCc1cc(O)c2c(c1)OC(C)(C)c1ccc(C)cc1-2 [CBN, cannabinol] | inverted-U curve | two-fold greater | 
CCCCCc1cc(O)c2c(c1)OC(C)(C)[C@@H]1CCC(C)=C[C@@H]21 [THC, delta-9-tetrahydrocannabinol] |  |  | two-fold increase
